Measurements taken from US10639345B2, “Compositions for preserving photoreceptor cells, retinal pigment epithelial cells, or visual function” (Massachusetts Eye and Ear Infirmary, priority 2010, dated 2020).

How the values were obtained:
photoreceptors [1] = test: TUNEL-positive photoreceptors in ONL after experimental retinal detachment; format: in vivo, rat
photoreceptors [2] = test: Normalized ONL thickness ratio after experimental retinal detachment; format: in vivo, rat; settings: subretinal Z-VAD 300 μM and/or Nec-1 400 μM
Description: Photoreceptor death was also assessed by TUNEL analysis at three days after retinal detachment in retina treated with either vehicle, Nec-1, Z-VAD or Nec-1+Z-VAD. […] Nine sections for each eye specimen were randomly selected, and the central area of detached retina and the mid-peripheral region of attached retina were photographed. The ONL thickness ratio was measured at ten points in each section by masked observers. […] (GCL: ganglion cell layer, INL: inner nuclear layer. *, P<0.05. Scale bar, 100 μm). […]
TNF-α protein contents in rat retina were determined using ELISA Kit for rat TNF-α (Invitrogen, Carlsbad, Calif.). Goat anti-mouse/rat TNF-α blocking antibody was purchased from R&D Systems (Minneapolis, Minn.). The rat eyes were subretinally injected with 1% of sodium hyaluronate containing 0.1 mg/ml of anti-TNF-α antibody or control antibody.

photoreceptors [3] = test: TEM quantification of apoptotic and necrotic photoreceptor death after retinal detachment; format: in vivo; settings: day three after retinal detachment, ONL
Description: The morphology of photoreceptors after retinal detachment was examined by transmission electron microscopy (TEM) and propidium iodide (PI) staining and the effect of treatment with Z-VAD and/or a Nec-1 compound of Formula I-C was analyzed.
TEM was performed as previously described (Hisatomi T et al. (2008). J. CLIN. INVEST. 118:2025-2038). […] Over 200 photoreceptors each eye were photographed and subjected to quantification of cell death modes in a masked fashion. Photoreceptors showing cellular shrinkage and nuclear condensation were defined as apoptotic cells, while photoreceptors associated with cellular and organelle swelling and discontinuities in nuclear and plasma membrane were defined as necrotic cells. The presence of electron-dense granular materials were reported to occur subsequent to both apoptotic and necrotic cell death and cells with these findings were labeled simply as end-stage cell death/unclassified (Hisatomi T et al. (2003) AM. J. PATHOL. 162:1869-1879; Erickson P A et al. (1983) INVEST. OPHTHALMOL. VIS. SCI. 24:927-942).
On day three after retinal detachment, photoreceptor death caused by apoptosis was almost twice that caused by necrosis in vehicle-treated retina (% apoptotic cells: 21.7±1.3%, necrotic cells: 13.3±1.0%, unclassified: 4.4±1.4%; FIGS. 7A and 7E).

photoreceptors [4] = test: TUNEL-positive cells after retinal detachment in RIP-3−/− mice; format: in vivo; settings: three days after retinal detachment
Description: The role of RIP-3 in RIP-mediated programmed necrosis in photoreceptor loss after retinal detachment was investigated in RIP-3 knockout (RIP-3−/−) mice. TUNEL assays were used to measure the amount of apoptotic and necrotic cell death (Grasl-Kraupp et al., HEPTALOGY (1995) 21(5):1465-8). TUNEL and quantification of TUNEL positive cells in ONL were performed as described above by using the ApopTag Fluorescein In Situ Apoptosis Detection Kit (Millipore, Billerica, Mass.).

NF-κB p65 = test: Western blot for phospho-NF-κB p65 after retinal detachment; format: in vivo
From the text: FIG. 16 is a photograph of an immunoblot from a Western blot analysis for phospho-NFκB p65 in control retina without a retinal detachment and in retina three days after retinal detachment with treatment of vehicle, Z-VAD or Z-VAD+Nec-1 (lane-loading differences were normalized by the level of β-tubulin).
The vitreous and neural retina combined was collected on day 3 after retinal detachment. Samples were run on 4-12% SDS-polyacrylamide gel electrophoresis and transferred onto PVDF membrane. After blocking with 3% nonfat dried milk, the membrane was reacted with RIP-3 (1:10000; Sigma, Saint Louis, […].), RIP-1 (1:2000; BD Biosciences), phosphoserine (1:2000; Enzo, Plymouth Meeting, Pa.) or anti-phosphorylated NF-κB p65 (1:1000; Cell signaling) antibody. Membranes were then developed with enhanced chemiluminescence. Lane-loading differences were normalized by β-tubulin (1:1000; Cell Signaling).
For Western Blot analysis, the vitreous and neural retina combined, were collected at three days after retinal detachment. Samples were run on 4-12% SDS-polyacrylamide gel electrophoresis and transferred onto PVDF membrane. After blocking with 3% nonfat dried milk, the membrane was reacted with anti-light chain 3 antibody (1:1000; Cell signaling), anti-phosphorylated ribosomal protein S6 antibody (1:1000; Cell Signaling) or anti-phosphorylated NF-κB p65 antibody (1:1000; Cell Signaling). […]

photoreceptors [5] = test: Poly I:C-induced dry AMD model, TUNEL-positive cells in ONL; format: in vivo, mice; settings: compared with vehicle
From the text: (§1) In this example, the mechanism of photoreceptor cell death in dry AMD was investigated using a polyinosinic:polycytidylic acid (Poly I:C)-induced dry AMD model (Yang et al. (2009) NEJM 359(14):1456-63). Poly I:C is a synthetic double-stranded RNA (dsRNA) analog that activates toll-like receptor 3 (TLR3) signaling (FIG. 20A). Furthermore, dsRNA are known to exist in the drusen of human AMD patients. As depicted in FIG. 20A, activation of the TLR3 signaling results in activation of RIP-1 kinase pathway. […] In the experiments described herein, 2-3 μl of Poly I:C (1 mg/ml) was injected into the subretinal space of the eye (e.g., approximately 2-3 μg of Poly I:C was administered to the eye) to induce AMD.
The thickness of the ONL was determined by the National Institutes of Health ImageJ software. […] Specifically, the number of TUNEL-positive cells in the RIP-3−/− mice treated with poly I:C was at least three fold less than control mice consistent with RIP-3 playing a role in mediating programmed necrosis in AMD (FIG. 22B).
(§2) To determine the effect of Nec-1 and a pan-caspase inhibitor in the treatment of AMD, TUNEL assay was performed to assess photoreceptor cell death in the poly I:C induced AMD model. […] The thickness of ONL was also measured.

photoreceptors [6] = test: Poly I:C-induced dry AMD model, ONL thickness; format: in vivo, mice
From the text: as §1
The thickness of the outer nuclear layer (ONL) was also determined in WT or RIP-3−/− mice at 14 days following treatment with poly I:C. Sections were randomly selected from either WT or RIP-3−/− mice following poly I:C treatment and the retina was photographed. The ONL thickness was measured in each section by masked observers.
as §2

primary RPE cells = test: Viability of primary RPE cells treated with poly I:C (Cell Counting Kit-8); format: cell-based, mice; settings: WT primary RPE cells, 5 μg/ml poly I:C for 48 hours
Description: As described in Example 11, primary RPE cells were extracted from the retina of mice and cultured in the presence of 5 μg/ml of poly I:C for 48 hours or with PBS. Cell viability was measured using Cell Counting Kit-8 (Dojindo Laboratories, Kumamoto, Japan). This assay is based on the cleavage of 2-(2-methoxy-4-nitrophenyl)-3-(4-nitrophenyl)-5-(2,4-disulfophenyl)-2H-tetrazolium, monosodium salt (WST-8) by the mitochondrial dehydrogenase enzyme to produce a formazan dye. After incubation with WST-8 for two hours at 37° C., absorbance was measured at 450 nm to determine cell viability.

photoreceptors [7] = test: Normalized ONL thickness ratio after retinal detachment in RIP-3−/− mice; settings: five days after retinal detachment, RIP-3−/− mice
Description: TUNEL assays were used to measure the amount of apoptotic and necrotic cell death (Grasl-Kraupp et al., HEPTALOGY (1995) 21(5):1465-8). TUNEL and quantification of TUNEL positive cells in ONL were performed as described above by using the ApopTag Fluorescein In Situ Apoptosis Detection Kit (Millipore, Billerica, Mass.). The ratio of the ONL thickness to the thickness of neuroretina in the central area of the detached retina was determined by National Institutes of Health ImageJ software and standardized by that in the attached retina. The data are expressed as normalized ONL thickness ratio [(ONL/neuroretina thickness in detached retina)/(ONL/neuroretina thickness in attached retina)].

SMILES	neuroprotective effect / photoreceptor loss (TUNEL-positive photoreceptors and ONL thickness ratio) (photoreceptors [1]; day three after retinal detachment in rats, subretinal injection)	number of TUNEL-positive cells in the ONL (photoreceptors [1]; day three after retinal detachment, subretinal Z-VAD 300 μM and/or Nec-1 400 μM at detachment)	normalized ONL thickness ratio (photoreceptors [2]; five days after retinal detachment)	normalized ONL thickness ratio (photoreceptors [2]; three days after retinal detachment)	% apoptotic cells (TEM) (photoreceptors [3])	% necrotic cells (TEM) (photoreceptors [3])	% unclassified (end-stage cell death, TEM) (photoreceptors [3])	number of TUNEL-positive cells (photoreceptors [4])	NF-κB p65 phosphorylation (NF-κB p65)	number of TUNEL-positive cells in ONL (photoreceptors [5])	ONL thickness (photoreceptors [6])	viability of RPE cells (primary RPE cells)	normalized ONL thickness ratio (photoreceptors [7])
C[C@H](NC(=O)C(=O)Nc1ccccc1C(C)(C)C)C(=O)N[C@@H](CC(=O)O)C(=O)COc1c(F)c(F)cc(F)c1F [IDN-6556, (3-{2-[(2-tert-butyl-phenylaminooxalyl)-amino]-propionylamino}-4-oxo-5-(2,3,5,6-tetrafluoro-phenoxy)-pentanoic acid)]	did not show any neuroprotective effect	–	–	–	–	–	–	–	–	–	–	–	–
CN1C(=O)NC(Cc2c[nH]c3c(Cl)cccc23)C1=O (stereo not shown) [Nec-1]	–	1067.5±95.5 cells/mm^2	0.58±0.12	0.71±0.09	19.8±2.0%	13.1±1.4%	2.8±0.4%	786.7±278.7 cells/mm^2	no effect	slight effect	minimal effect	did not protect RPE cells	0.761±0.049
